Paper PMC12737022, “Evaluations of Sex Differences in Dosimetry in Rats Following Perfluorohexanesulfonamide (PFHxSA) Oral Exposure” (Toxics, 2025)
Several values for one entry are separate records, joined by “and”; a condition that tells them apart may be missing. Equal values may be shown once. Read-outs that look alike come from different tables or passages of the source.

Experiments:
[1] = In vitro-in vivo extrapolation (IVIVE) to estimate Css, human
Protocol: Intrinsic hepatic clearance (Clint) and fraction unbound in plasma (fup) were calculated from the experimental point estimate data as described in Dobreniecki et al.. Steady-state concentrations (Css) were derived based on zero-order uptake of an assumed daily dose from the gut (assuming 100% intestinal bioavailability) but considering hepatic clearance and non-metabolic renal clearance. Renal clearance was calculated using the glomerular filtration rate (a species-dependent constant) and the fraction unbound in blood (fub), estimated by adjusting the experimental fup for blood/plasma partitioning. The Css calculations, along with underlying species-specific physiologic scalars, are detailed in SI Texts S6 and S7. […]
hepatocytes). In equation (C), the scalar 2000 is used to adjust the assay cell number to be consistent with units of 1 million cells in the Clint equation.
Text S7 In Vitro-In Vivo Extrapolation (IVIVE) Calculations
The pharmacokinetic equation used to estimate expected steady-state concentrations (Css) is based on zero-order uptake of a daily dose from the gut (assuming 100% bioavailability) with both nonmetabolic renal clearance (Clrenal) and hepatic clearance (Clhepatic) (Equation D). The chemical input rate (ko) is the product of the intake dosage and the model body weight; this represents the numerator of Equation D. The Clrenal calculation is shown in the first part of the denominator of Equation D; it is the product of the species-dependent glomerular filtration rate (GFR) and the unbound fraction in blood (fub) of the parent compound. The Clhepatic calculation is shown in the second part of the denominator of Equation D; it is the product of the species-dependent liver blood flow constant, the fub of the parent compound, and the experimentally derived intrinsic clearance (shown in Equation C) divided by the sum of these three values. All values used in Equation D are for first-order conditions of metabolism in the […]

[2] = Liver dosimetry of PFHxSA and PFHxS by targeted LC/MS/MS; type: in vivo, rat; settings: for PFHxS Male Liver Conc. (wet weight) / PFHxS Female Liver Conc. (wet weight) / concentration at 24 h: individual rats; for PFHxS Male Liver Conc. (wet weight) / concentration at 24 h: male; for concentration at 24 h: Sprague Dawley (Crl:CD(SD)), liver, oral, read-out: PFHxS Male Liver Conc. (wet weight)
Text: The plasma and liver samples for this investigation were provided by Mutlu et al.. The study design, including detailed descriptions of animal handling, procedures for dosing, clinical observations, termination, and collection of tissues, is reported elsewhere and is consistent with the ARRIVE guidelines. Briefly, male and female Sprague Dawley (SD) rats (Crl:CD(SD)) (n = 48/sex, 96 total) were purchased from Charles River Laboratory (Raleigh, NC, USA) and allowed to acclimate for ≥5 days before initial dosing. Rats were 8–10 weeks old at the time of exposure. PFHxSA dosing solutions in corn oil were prepared on Day 0 and used over the course of the study. Rats of both sexes (n = 5/sex, dose, and time point, plus eight vehicle controls per sex) were dosed by oral gavage (5 mL/kg body weight) once daily for five days. […] The formulation concentrations decreased from 100 mg/kg/day at half-log10 intervals until the lowest dose level, which was a full log10 interval below the next higher dose, giving eight dose levels (0.01 to 100 mg/kg/day or 0.025 µmol/kg/day to 250 µmol/kg/day) in addition to vehicle controls. Doses were administered in randomized order within ± 1 h on each day of dosing. […] Rats were euthanized 24 h after the last dose. Blood was collected via cardiac puncture with tripotassium ethylene diamine tetraacetic acid (K3EDTA) as an anti-coagulant and centrifuged to collect cell-free plasma. Liver was collected and flash-frozen in liquid nitrogen. Liver, plasma, and dosing formulation samples were frozen at the USEPA Center for Computational Toxicology and Exposure (CCTE), Durham, NC, USA. Tissue samples (plasma and liver, n = 96 each) were stored at ≤−70 °C prior to extraction; dosing formulation samples (n = 9) were stored at −20 °C.
Detailed information on solvents and standards used for targeted LC/MS/MS of PFHxSA and PFHxS can be found in SI Text S1 and SI Table S1. Plasma and liver preparations were modified from Conley et al.. Briefly, aliquots of plasma (25 µL) and liver (~10 mg) were spiked with PFOSA as an internal standard, as no isotope-labeled PFHxSA was available. Sample batches included up to 96 samples along with an MB, CCV, and LCS for QC. Commercial plasma (mixed-sex SD rat plasma) and liver (mixed-sex SD rat) were obtained from BioIVT (Westbury, NY, USA). Cold acetonitrile (ACN) with 0.1 M formic acid was used to precipitate proteins. Liver and plasma samples were prepared similarly, except that the livers were homogenized after solvent addition. Plasma samples were vortexed to mix before being chilled at −20 °C, after which samples were centrifuged at 5 °C and 10,000× g. Liver samples were chilled at −80 °C, then homogenized using an Omni International (Kennesaw, GA, USA) Bead Ruptor 24. Liver homogenates were centrifuged at 26,000× g and 5 °C. Supernatants from the extraction of both matrices were removed and stored at −20 °C until analysis. Refer to SI Text S4 for additional experimental details and information on calibration and QC parameters for quantitation of PFHxSA.
Targeted LC/MS/MS of PFHxSA was performed on a Sciex 4000 QTRAP LC/MS/MS system operated in negative ESI mode with MRM scanning. A Restek (Bellefonte, PA, USA) Raptor Polar X (100 mm × 2 mm, 2.7 µm) column was used for liquid chromatography. Isocratic elution occurred over 10 min with a 30:70 ratio of mobile phase A (10 mM ammonium formate): mobile phase B (60:40 ACN: methanol). Both mobile phases included 0.05% formic acid. The LOQs for PFHxSA were 0.100 µM in plasma and 0.351 µM in liver. Additional details of the instrument method parameters for targeted analysis of PFHxSA are provided in SI Table S5. The MRM transitions for the PFHxSA method are provided in SI Table S6. […]

[3] = PFHxSA 10 mg/kg/day oral 5 days
[4] = PFHxSA 30 mg/kg/day oral 5 days
[5] = PFHxSA 100 mg/kg/day oral 5 days

With `O=S(=O)(O)C(F)(F)C(F)(F)C(F)(F)C(F)(F)C(F)(F)C(F)(F)F` [PFHxS, perfluorohexane sulfonic acid] the “Css (steady-state concentration)” value ([1]; Human, IVIVE-derived, assumes 1 mg/kg/day exposure) was 669 µM, the CL renal ([1]; Human, non-metabolic, GFR x fub, read-out: Clrenal (renal clearance) (converted)) was 0.183 mL/min and the “Predicted Css in humans higher than rats” value ([1]; cross-species IVIVE comparison) was 3- to 10 fold. For the same compound, the “IVIVE-derived Css lower for PFHxS compared to PFHxSA” value ([1]; human) was 2.25 fold, the “PFHxS Male Liver Conc. (wet weight)” value ([2]; PFHxSA 0.3 mg/kg/day oral 5 days) was 2.31 ng/mg and 3.68 µM and 0.95 µM and 2.30 µM and 0.85 µM and 1.47 ng/mg and 0.381 ng/mg and 0.921 ng/mg and 0.340 ng/mg and the “PFHxS Male Liver Conc. (wet weight)” value ([2]; PFHxSA 1 mg/kg/day oral 5 days) was 2.73 ng/mg (2×) and 2.38 ng/mg and 3.34 µM and 5.56 µM and 6.81 µM (2×) and 5.95 µM and 1.34 ng/mg and 2.23 ng/mg. For the same compound, the “PFHxS Male Liver Conc. (wet weight)” value ([2]; PFHxSA 3 mg/kg/day oral 5 days) was 4.61 ng/mg and 5.83 ng/mg and 4.92 ng/mg and 3.19 ng/mg and 11.5 µM and 14.6 µM and 12.3 µM and 7.97 µM, the “PFHxS Female Liver Conc. (wet weight)” value [2, 3] was 0.301 ng/mg and 0.776 ng/mg and 0.700 ng/mg and 1.18 ng/mg and 1.13 ng/mg and 0.753 µM and 1.94 µM and 1.75 µM and 2.96 µM and 2.81 µM and the “PFHxS Male Liver Conc. (wet weight)” value [2, 3] was 8.96 ng/mg and 6.84 ng/mg and 9.88 ng/mg and 7.36 ng/mg and 22.4 µM and 17.1 µM and 24.7 µM and 18.4 µM. For the same compound, the “PFHxS Female Liver Conc. (wet weight)” value [2, 4] was 1.72 ng/mg and 2.56 ng/mg and 1.26 ng/mg and 1.35 ng/mg and 2.38 ng/mg and 4.31 µM and 6.39 µM and 3.15 µM and 3.37 µM and 5.96 µM, the “PFHxS Male Liver Conc. (wet weight)” value [2, 4] was 16.3 ng/mg and 15.3 ng/mg and 15.2 ng/mg and 24.0 ng/mg and 40.7 µM and 38.2 µM and 38.3 µM and 60.1 µM and the “PFHxS Female Liver Conc. (wet weight)” value [2, 5] was 4.16 µM and 2.21 µM and 10.2 µM and 5.79 µM and 2.07 µM and 1.66 ng/mg and 0.885 ng/mg and 4.07 ng/mg and 2.32 ng/mg and 0.826 ng/mg. The “PFHxS Male Liver Conc. (wet weight)” value [2, 5] was 67.1 ng/mg and 88.3 ng/mg and 41.9 ng/mg and 34.0 ng/mg and 44.5 ng/mg and 168 µM and 221 µM and 105 µM and 85.1 µM, the “PFHxS lower than PFHxSA in female liver, on average” value ([2]; female rats, after oral PFHxSA) was 2.9 fold and the concentration at 24 h ([2]; rat, PFHxSA 3 mg/kg/day oral 5 days) was 3100 ng/g and 7.74 µM. The concentration at 24 h ([2]; rat, PFHxSA 10 mg/kg/day oral 5 days) was 7940 ng/g and 19.9 µM, the concentration at 24 h ([2]; rat, PFHxSA 30 mg/kg/day oral 5 days) was 14500 ng/g and 36.2 µM and the “Male PFHxS liver concentrations versus females at equivalent dose levels” value ([2]; rat, in vivo) was “approximately ten-fold greater”.
